Laboratory results from patent US10251865B2, “Method of activating regulatory T cells with alpha-2B adrenergic receptor agonists” (Allergan, Inc., priority 2010, dated 2019).

Test system: tear TNF-alpha and IL17
Test: Dry eye desiccating stress in mice, adoptive transfer of CD4+ T cells, recipient tear cytokines
Format: in vivo
Conditions: donor mice treated 3 mg/kg/day for 10 days during desiccating stress; CD4+ T cells transferred to nude mice, FIG. 11
Text: C57BL/6 (C57BL/6NTac) and B6.Cg/NTac-Foxn1nuNE9 were purchased from Taconic, Inc. (Germantown, N.Y.). Mice were used at 6-10 weeks of age. Animal studies approval was obtained from the Allergan Animal Care and Use Committee. All studies adhered to the Association for Research in Vision and Ophthalmology statement for the Use of Animals in Ophthalmic and Vision Research. As described in the literature dry eye was induced by treating mice with subcutaneous injections of scopolamine hydrobromide (0.5 mg/0.2 ml; Sigma-Aldrich, St. Louis, Mo.) three times a day alternating between the left and right flanks (Neiderkorn et al, 2006). […] Histological analysis was done by staining […] samples with antibody to CD4 and H&E staining to quantify goblet cells and T cells in the conjunctiva. […]
The levels of cytokines were measured with a sensitive, fluorescent multiplex immunobead assay (Luminex; Biosource-Invitrogen, Carlsbad, Calif.). […] Cytokine levels in samples were analyzed by using the corresponding Millipore cytokine Beadmate pairs. […] Beads were washed, resuspended in 125 μl of Beadlyte buffer, and analyzed by Luminex 100 instrument (Luminex Corporation, Austin, Tex.). The mean fluorescence intensities obtained from 50 beads per cytokine minimum were analyzed using Upstate Beadview software. […]

Compound: CCC1=CC(Cc2c[nH]cn2)CCC1 (centres unmarked) [Compound B]
- recipient tear level of IL-17: significantly reduced
- recipient tear level of TNFα: significantly reduced
